From US12552938B2, “Deuterated fluorophores” (HOWARD HUGHES MEDICAL INSTITUTE, priority 2018, dated 2026) come the findings set out here.

The nature of series [1]: spectral properties of free dyes (absorbance, fluorescence emission, ε, Φ, intrinsic brightness). It is filed as physicochemical. The settings on record: 10 mM HEPES pH 7.3; for extinction coefficient (ε) compared to nondeuterated parent / fluorescence quantum yield (Φ) compared to nondeuterated parent / intrinsic brightness (ε×Φ): free dye; for intrinsic brightness (ε×Φ): in vitro.

Series [2] is described as follows: photobleaching of free dyes in vitro. The following applies: for photobleaching / in vitro photostability compared to nondeuterated parent: free dye, 10 mM HEPES pH 7.3; for chromostability during bleaching: compared to nondeuterated compounds 15 and 17. Type of series: physicochemical.
For series [3], the system named is histone H2B-HaloTag fusion. The experiment in a line: labeling of cells expressing histone H2B-HaloTag fusion and imaging. It is filed as cell-based, mammalian cell. The settings on record: 10 pM, 30 min, washed 30 minutes.
The subject of series [4] is histone H2B-HaloTag. The series can be described thus: fluorescence lifetime in live cells measured using FLIM. It is filed as cell-based. The settings on record: histone H2B-HaloTag-bound.
For series [5], the system named is HaloTag protein. The series can be described thus: relative singlet oxygen quantum yield of HaloTag-bound ligands. It is filed as physicochemical.
Series [6] has as its system Sox2-HaloTag fusions. The experiment in a line: live-cell single-particle tracking of HaloTag ligands. It is filed as cell-based. The settings on record: HaloTag conjugates; for brightness in cells (photons/s): equivalent imaging conditions.
Series [7] relates to HaloTag protein. The series can be described thus: fluorescence quantum yield of HaloTag-bound ligands in vitro. It is filed as physicochemical. The settings on record: attached to HaloTag protein. On the procedure: These dyes were then tested as protein conjugates in vitro and in living cells. […] Both J ligands could label HaloTag-histone H2B fusions in living cells (FIG. 24, FIG. 25).

[8] abbreviates: deuterated vs nondeuterated TMR.

SMILES strings stand for the structures. “Also recorded” adds a separate entry of the source. Counter-ions that a name gives are not always drawn.

Turning to `[2H]C1([2H])N(c2ccc3c(c2)[Si](C)(C)C2=CC(=[N+]4C([2H])([2H])C([2H])([2H])C([2H])([2H])C4([2H])[2H])C=CC2=C3c2ccccc2C(=O)[O-])C([2H])([2H])C([2H])([2H])C1([2H])[2H]` [Compound 33, 2-(5,5-Dimethyl-3,7-bis(pyrrolidin-1-yl-d8)dibenzo[b,e]silin-10-ylium-10(5H)-yl)benzoate], in series [1], the “extinction coefficient (ε) compared to nondeuterated parent” value is reported as “substantial increase” and the “fluorescence quantum yield (Φ) compared to nondeuterated parent” value is “substantial increase”.
As for `[2H]C([2H])([2H])N(c1ccc2c(-c3ccccc3C(=O)[O-])c3ccc(=[N+](C([2H])([2H])[2H])C([2H])([2H])[2H])cc-3oc2c1)C([2H])([2H])[2H]` [Compound 14, 2-(3,6-Bis(bis(methyl-d3)amino)xanthylium-9-yl)benzoate], the “absorption and emission maxima / spectral shape compared to nondeuterated parent” value in series [1] is “remarkably similar”. In addition, in series [1] (setting [8]), the “increase in extinction coefficient at λmax (ε) compared to 1” value is listed as roughly 20% and the “increase in fluorescence quantum yield (Φ) compared to 1” value was roughly 20%. For the same molecule, in series [2], the “photobleaching / in vitro photostability compared to nondeuterated parent” value was “slower rate of photobleaching”.
For the molecule `[2H]C1([2H])N(c2ccc3c(-c4ccccc4C(=O)[O-])c4ccc(=[N+]5C([2H])([2H])C([2H])([2H])C([2H])([2H])C5([2H])[2H])cc-4oc3c2)C([2H])([2H])C([2H])([2H])C1([2H])[2H]` [Compound 18, 2-(3,6-Bis(pyrrolidin-1-yl-d8)xanthylium-9-yl)benzoate], in series [1], the “absorption and emission maxima / spectral shape compared to nondeuterated parent” value is given as “no change in spectral shape”; the “intrinsic brightness (ε×Φ)” value is on record as “equivalent brightness”; the “extinction coefficient (ε) compared to nondeuterated parent” value was “increases”; the “fluorescence quantum yield (Φ) compared to nondeuterated parent” value is given as “increases”. Also, in series [2], the chromostability during bleaching entry is given as “higher” and the “photobleaching / in vitro photostability compared to nondeuterated parent” value is “improved in vitro photostability”.
Regarding `[2H]C1([2H])N(c2ccc3c(c2)C(C)(C)C2=CC(=[N+]4C([2H])([2H])C([2H])([2H])C4([2H])[2H])C=CC2=C3c2ccccc2C(=O)[O-])C([2H])([2H])C1([2H])[2H]` [Compound 27, 2-(3,6-Bis(azetidin-1-yl-d6)-10,10-dimethylanthracen-9-ylium-9(10H)-yl)benzoate], in series [1], the “extinction coefficient (ε) compared to nondeuterated parent” value is “substantial increases” and the “fluorescence quantum yield (Φ) compared to nondeuterated parent” value is given as “substantial increases”.
In the case of `[2H]C1([2H])N(c2ccc3c(c2)C(C)(C)C2=CC(=[N+]4C([2H])([2H])C([2H])([2H])C([2H])([2H])C4([2H])[2H])C=CC2=C3c2ccccc2C(=O)[O-])C([2H])([2H])C([2H])([2H])C1([2H])[2H]` [Compound 29, 2-(10,10-Dimethyl-3,6-bis(pyrrolidin-1-yl-d8)anthracen-9-ylium-9(10H)-yl)benzoate], in series [1], the “extinction coefficient (ε) compared to nondeuterated parent” value is reported as “substantial increases” and the “fluorescence quantum yield (Φ) compared to nondeuterated parent” value is given as “substantial increases”.
Consider `[2H]C1([2H])N(c2ccc3c(c2)[Si](C)(C)C2=CC(=[N+]4C([2H])([2H])C([2H])([2H])C4([2H])[2H])C=CC2=C3c2ccccc2C(=O)[O-])C([2H])([2H])C1([2H])[2H]` [Compound 31, 2-(3,7-Bis(azetidin-1-yl-d6)-5,5-dimethyldibenzo[b,e]silin-10-ylium-10(5B)-yl)benzoate], for which, in series [1], the “intrinsic brightness (ε×Φ)” value is recorded as “increase”, the “extinction coefficient (ε) compared to nondeuterated parent” value is recorded as “modestly increased” and the “fluorescence quantum yield (Φ) compared to nondeuterated parent” value is given as “did not elicit a large increase”.
Turning to `[2H]C1([2H])OC([2H])([2H])C([2H])([2H])N(c2ccc3c(-c4ccccc4C(=O)[O-])c4ccc(=[N+]5C([2H])([2H])C([2H])([2H])OC([2H])([2H])C5([2H])[2H])cc-4oc3c2)C1([2H])[2H]` [Compound 22, 2-(3,6-Bis(morpholino-d8)xanthylium-9-yl)benzoate], in series [1], the “absorption and emission maxima / spectral shape compared to nondeuterated parent” value is “no change in spectral shape”; the “extinction coefficient (ε) compared to nondeuterated parent” value was “increases”; the “fluorescence quantum yield (Φ) compared to nondeuterated parent” value is given as “increases”.
On to `[2H]C1([2H])N(c2ccc3nc4ccc(=[N+]5C([2H])([2H])C([2H])([2H])C([2H])([2H])C5([2H])[2H])cc-4oc3c2)C([2H])([2H])C([2H])([2H])C1([2H])[2H]` [Compound 44, 3,7-Bis(pyrrolidin-1-yl-d8)phenoxazin-5-ium trifluoroacetate], for which, in series [1], the “fluorescence quantum yield (Φ) compared to nondeuterated parent” value is recorded as “substantial increase”.
Consider `[2H]C1([2H])N(c2ccc3c(-c4ccccc4C(=O)[O-])c4ccc(=[N+]5C([2H])([2H])C([2H])([2H])C([2H])([2H])C([2H])([2H])C5([2H])[2H])cc-4oc3c2)C([2H])([2H])C([2H])([2H])C([2H])([2H])C1([2H])[2H]` [Compound 20, 2-(3,6-Bis(piperidin-1-yl-d10)xanthylium-9-yl)benzoate], for which, in series [1], the “absorption and emission maxima / spectral shape compared to nondeuterated parent” value is reported as “no change in spectral shape”; the “extinction coefficient (ε) compared to nondeuterated parent” value is reported as “increases”; the “fluorescence quantum yield (Φ) compared to nondeuterated parent” value is reported as “increases”. The chromostability during bleaching result in series [2] is reported as “higher”.
As for `[2H]C1([2H])N(c2ccc3c(C)cc(=O)oc3c2)C([2H])([2H])C([2H])([2H])C1([2H])[2H]` [Compound 42, 4-Methyl-7-(pyrrolidin-1-yl-d8)-2H-chromen-2-one], in series [1], the “extinction coefficient (ε) compared to nondeuterated parent” value is “equivalent” and the “fluorescence quantum yield (Φ) compared to nondeuterated parent” value was “significantly higher”.
Turning to `[2H]C1([2H])N(c2ccc3c(C)cc(=O)oc3c2)C([2H])([2H])C1([2H])[2H]` [Compound 40, 7-(Azetidin-1-yl-d6)-4-methyl-2H-chromen-2-one], in series [1], the “extinction coefficient (ε) compared to nondeuterated parent” value is “similar” and the “fluorescence quantum yield (Φ) compared to nondeuterated parent” value was “small decrease”.
For `[2H]C1([2H])N(c2ccc3c(-c4cc(C(=O)NCCOCCOCCCCCCCl)ccc4C(=O)[O-])c4ccc(=[N+]5C([2H])([2H])C([2H])([2H])C5([2H])[2H])cc-4oc3c2)C([2H])([2H])C1([2H])[2H]` [Compound 24, 2-(3,6-Bis(azetidin-1-yl-d6)xanthylium-9-yl)-4-((2-(2-((6-chlorohexyl)oxy)ethoxy)ethyl)carbamoyl)benzoate], the “labeling of HaloTag-histone H2B fusions in living cells” value (shortened to “labeling”) in series [3] is recorded as “could label”. Moreover, the “fluorescence lifetime (τ) of HaloTag conjugate in cells compared to nondeuterated ligand” value in series [4] was “longer”. In addition, the “1O2 generation of HaloTag-bound ligand compared to nondeuterated ligand” value in series [5] is recorded as “significantly suppressed”. Further, in series [6], the “photostability in cells (average track length of individual molecules)” value (“photostability in cells” below) is listed as “no improvement” and the “brightness in cells (photons/s)” value is “higher brightness”. For the same molecule, in series [7], the “fluorescence quantum yield of HaloTag conjugate compared to nondeuterated ligand” value is listed as “higher”.
`O=C1OC2(c3ccc(N4CCC4)cc3Oc3cc(N4CCC4)ccc32)c2ccccc21` [Compound 15, reference compound]: in series [2] (spectra taken periodically during photobleaching), the “blue-shift of fluorescence emission during photobleaching due to dealkylation” value came out at 9 nm.
`[2H]C1([2H])N(c2ccc3c(c2)[Si](C)(C)C2=CC(=[N+]4C([2H])([2H])C([2H])([2H])C([2H])([2H])C4([2H])[2H])C=CC2=C3c2cc(C(=O)NCCOCCOCCCCCCCl)ccc2C(=O)[O-])C([2H])([2H])C([2H])([2H])C1([2H])[2H]` [Compound 38, 4-((2-(2-((6-Chlorohexyl)oxy)ethoxy)ethyl)carbamoyl)-2-(5,5-dimethyl-3,7-bis(pyrrolidin-1-yl-d8)dibenzo[b,e]silin-10-ylium-10(5H)-yl)benzoate]: the “labeling” value in series [3] was “improved cellular labeling”. In addition, in series [6], the “photostability in cells” value is recorded as “more photostable; also recorded: longest average single-molecule track length” and the “brightness in cells (photons/s)” value is recorded as “highest photons/s”.
For `[2H]C1([2H])N(c2ccc3c(c2)[Si](C)(C)C2=CC(=[N+]4C([2H])([2H])C([2H])([2H])C4([2H])[2H])C=CC2=C3c2cc(C(=O)NCCOCCOCCCCCCCl)ccc2C(=O)[O-])C([2H])([2H])C1([2H])[2H]` [Compound 37, 2-(3,7-Bis(azetidin-1-yl-d6)-5,5-dimethyldibenzo[b,e]silin-10-ylium-10(51)-yl)-4-((2-(2-((6-chlorohexyl)oxy)ethoxy)ethyl)carbamoyl)benzoate], the “labeling” value in series [3] is reported as “suitable labels”. Also, the “fluorescence lifetime (τ) of HaloTag conjugate in cells compared to nondeuterated ligand” value in series [4] was “increased”. The “1O2 generation of HaloTag-bound ligand compared to nondeuterated ligand” value in series [5] is listed as “lower”. Further, in series [6], the “photostability in cells” value is recorded as “more photostable” and the “brightness in cells (photons/s)” value is listed as “higher brightness”. Also, the “fluorescence quantum yield of HaloTag conjugate compared to nondeuterated ligand” value in series [7] is listed as “substantial increase”.
For `[2H]C1([2H])N(c2ccc3c(-c4cc(C(=O)NCCOCCOCCCCCCCl)ccc4C(=O)[O-])c4ccc(=[N+]5C([2H])([2H])C([2H])([2H])C([2H])([2H])C5([2H])[2H])cc-4oc3c2)C([2H])([2H])C([2H])([2H])C1([2H])[2H]` [Compound 25, 2-(3,6-Bis(pyrrolidin-1-yl-d8)xanthylium-9-yl)-4-((2-(2-((6-chlorohexyl)oxy)ethoxy)ethyl)carbamoyl)benzoate], the “labeling” value in series [3] is on record as “excellent live-cell label”. Besides, in series [6], the “photostability in cells” value is listed as “significantly longer tracks” and the “brightness in cells (photons/s)” value is “higher brightness”.
